Source: PubChem BioAssay (NCI)
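Dose response: 5 concentrations. Exposure: 48 h. Format: 96-well plates. Endpoint: linear interpolation; highest concentration if not reached. GI50 = concentration required for 50% inhibition of growth. TGI denotes the concentration required for complete inhibition of growth.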

How the values were obtained:
Assay in all cases: NCI tumour cell line growth inhibition, 48 h
SR leukemia = test system: SR leukemia
M14 melanoma = test system: M14 melanoma
KM12 colon = test system: KM12 colon
LOX IMVI melanoma = test system: LOX IMVI melanoma
RPMI-8226 leukemia = test system: RPMI-8226 leukemia
OVCAR-8 ovarian = test system: OVCAR-8 ovarian
UACC-257 melanoma = test system: UACC-257 melanoma
U251 CNS = test system: U251 CNS
TK-10 renal = test system: TK-10 renal
SN12C renal = test system: SN12C renal
SF-539 CNS = test system: SF-539 CNS
NCI-H226 lung = test system: NCI-H226 lung
MDA-MB-231 breast = test system: MDA-MB-231 breast
SF-295 CNS = test system: SF-295 CNS
CAKI-1 renal = test system: CAKI-1 renal
COLO 205 colon = test system: COLO 205 colon
HOP-62 NSCLC = test system: HOP-62 NSCLC
OVCAR-4 ovarian = test system: OVCAR-4 ovarian
T-47D breast = test system: T-47D breast
MCF7 breast = test system: MCF7 breast
HCC-2998 colon = test system: HCC-2998 colon
K-562 leukemia = test system: K-562 leukemia
UACC-62 melanoma = test system: UACC-62 melanoma
SK-MEL-28 melanoma = test system: SK-MEL-28 melanoma
SW-620 colon = test system: SW-620 colon
786-0 renal = test system: 786-0 renal
A498 renal = test system: A498 renal
MALME-3M melanoma = test system: MALME-3M melanoma
HCT-15 colon = test system: HCT-15 colon
SK-MEL-2 melanoma = test system: SK-MEL-2 melanoma
PC-3 prostate = test system: PC-3 prostate
DU-145 prostate = test system: DU-145 prostate
SNB-75 CNS = test system: SNB-75 CNS
HS 578T breast = test system: HS 578T breast
MDA-MB-435 = test system: MDA-MB-435
OVCAR-5 ovarian = test system: OVCAR-5 ovarian
SK-MEL-5 melanoma = test system: SK-MEL-5 melanoma
NCI-H23 lung = test system: NCI-H23 lung
BT-549 breast = test system: BT-549 breast
SF-268 CNS = test system: SF-268 CNS
HL-60(TB) leukemia = test system: HL-60(TB) leukemia
NCI/ADR-RES ovarian = test system: NCI/ADR-RES ovarian
UO-31 renal = test system: UO-31 renal
IGROV1 ovarian = test system: IGROV1 ovarian
HT29 colon = test system: HT29 colon
SK-OV-3 ovarian = test system: SK-OV-3 ovarian
NCI-H522 lung = test system: NCI-H522 lung
RXF 393 renal = test system: RXF 393 renal
NCI-H460 lung = test system: NCI-H460 lung
CCRF-CEM leukemia = test system: CCRF-CEM leukemia
SNB-19 CNS = test system: SNB-19 CNS
ACHN renal = test system: ACHN renal
OVCAR-3 ovarian = test system: OVCAR-3 ovarian
HCT-116 colon = test system: HCT-116 colon
A549 NSCLC = test system: A549 NSCLC
EKVX NSCLC = test system: EKVX NSCLC
HOP-92 NSCLC = test system: HOP-92 NSCLC

## COc1ccc(-n2c(C)cc(-c3ccccc3)c2C)cc1
SR leukemia
  GI50: 1.3 µM
  TGI: 5.75 µM
M14 melanoma
  GI50: 2.59 µM
  TGI: 9.14 µM
KM12 colon
  GI50: 2.85 µM
  TGI: 35.3 µM
LOX IMVI melanoma
  GI50: 2.55 µM
  TGI: 11.9 µM
RPMI-8226 leukemia
  GI50: 1.49 µM
  TGI: 5.02 µM
OVCAR-8 ovarian
  GI50: 3.51 µM
  TGI: 38 µM
UACC-257 melanoma
  GI50: 2.33 µM
  TGI: 7.51 µM
U251 CNS
  GI50: 2.87 µM
  TGI: 25.4 µM
TK-10 renal
  GI50: 3.28 µM
  TGI: 16.5 µM
SN12C renal
  GI50: 2.84 µM
  TGI: > 100 µM
SF-539 CNS
  GI50: 2.96 µM
  TGI: 17.4 µM
NCI-H226 lung
  GI50: 5.75 µM
  TGI: 31.2 µM
MDA-MB-231 breast
  GI50: 1.56 µM
  TGI: 3.66 µM
SF-295 CNS
  GI50: 2.2 µM
  TGI: 7.58 µM
CAKI-1 renal
  GI50: 1.57 µM
  TGI: 7.55 µM
COLO 205 colon
  GI50: 2.42 µM
  TGI: 5.95 µM
HOP-62 NSCLC
  GI50: 6.68 µM
  TGI: 67.8 µM
OVCAR-4 ovarian
  GI50: 2.46 µM
  TGI: > 100 µM
T-47D breast
  GI50: 1.65 µM
  TGI: 67.2 µM
MCF7 breast
  GI50: 3.58 µM
  TGI: > 100 µM
HCC-2998 colon
  GI50: 3.04 µM
  TGI: 11.4 µM
K-562 leukemia
  GI50: 1.4 µM
  TGI: > 100 µM
UACC-62 melanoma
  GI50: 2.01 µM
  TGI: 12.8 µM
SK-MEL-28 melanoma
  GI50: 3.68 µM
  TGI: > 100 µM
SW-620 colon
  GI50: 2.14 µM
  TGI: 12.5 µM
786-0 renal
  GI50: 1.94 µM
  TGI: 4.85 µM
A498 renal
  GI50: 0.637 µM
  TGI: 9 µM
MALME-3M melanoma
  GI50: 1.78 µM
  TGI: 4.53 µM
HCT-15 colon
  GI50: 1.95 µM
  TGI: 13.3 µM
SK-MEL-2 melanoma
  GI50: 1.7 µM
  TGI: 3.93 µM
PC-3 prostate
  GI50: 2.22 µM
  TGI: > 100 µM
DU-145 prostate
  GI50: 4.66 µM
  TGI: 22.3 µM
SNB-75 CNS
  GI50: 3.37 µM
  TGI: > 100 µM
HS 578T breast
  GI50: 4.58 µM
  TGI: > 100 µM
MDA-MB-435
  GI50: 1.56 µM
  TGI: 5.58 µM
OVCAR-5 ovarian
  GI50: 2.48 µM
  TGI: 14.6 µM
SK-MEL-5 melanoma
  GI50: 1.77 µM
  TGI: 4.86 µM
NCI-H23 lung
  GI50: 2.16 µM
  TGI: 16.2 µM
BT-549 breast
  GI50: 2.63 µM
  TGI: 9.98 µM
SF-268 CNS
  GI50: 4.46 µM
  TGI: 33.3 µM
HL-60(TB) leukemia
  GI50: 2.88 µM
  TGI: 9.92 µM
NCI/ADR-RES ovarian
  GI50: 3.33 µM
  TGI: 21.5 µM
UO-31 renal
  GI50: 2.24 µM
  TGI: 95.8 µM
IGROV1 ovarian
  GI50: 4.23 µM
  TGI: 34.8 µM
HT29 colon
  GI50: 1.89 µM
  TGI: 7.23 µM
SK-OV-3 ovarian
  GI50: 6.83 µM
  TGI: 68.6 µM
NCI-H522 lung
  GI50: 1.48 µM
  TGI: 4.68 µM
RXF 393 renal
  GI50: 1.7 µM
  TGI: 5.31 µM
NCI-H460 lung
  GI50: 3.13 µM
  TGI: 18.9 µM
CCRF-CEM leukemia
  GI50: 2.16 µM
  TGI: 9.16 µM
SNB-19 CNS
  GI50: 8.41 µM
  TGI: > 100 µM
ACHN renal
  GI50: 2.82 µM
  TGI: 33.3 µM
OVCAR-3 ovarian
  GI50: 2.61 µM
  TGI: 10.7 µM
HCT-116 colon
  GI50: 2.11 µM
  TGI: 16.1 µM
A549 NSCLC
  GI50: 2.88 µM
  TGI: 38.7 µM

## COc1cc2c3c(n(CCCOC(=O)C(F)(F)F)c(=O)c2cc1OC)-c1cc2c(cc1C3=O)OCO2
M14 melanoma
  GI50: < 0.0123 µM
KM12 colon
  GI50: 0.0296 µM
  TGI: 14.6 µM
LOX IMVI melanoma
  GI50: < 0.01 µM
  TGI: 0.0371 µM
RPMI-8226 leukemia
  GI50: < 0.01 µM
  TGI: 0.0158 µM
OVCAR-8 ovarian
  TGI: 0.664 µM
U251 CNS
  GI50: < 0.01 µM
  TGI: 1.07 µM
TK-10 renal
  GI50: 0.135 µM
  TGI: > 100 µM
SN12C renal
  GI50: < 0.01 µM
  TGI: 0.0272 µM
SF-539 CNS
  GI50: < 0.01 µM
  TGI: 0.0699 µM
NCI-H226 lung
  GI50: < 0.0151 µM
  TGI: 0.161 µM
MDA-MB-231 breast
  GI50: 0.127 µM
  TGI: > 49.9 µM
SF-295 CNS
  GI50: < 0.01 µM
  TGI: 0.721 µM
CAKI-1 renal
  GI50: < 0.01 µM
COLO 205 colon
  GI50: 0.519 µM
  TGI: > 100 µM
HOP-62 NSCLC
  GI50: < 0.01 µM
  TGI: < 0.0329 µM
OVCAR-4 ovarian
  GI50: 0.208 µM
  TGI: > 100 µM
T-47D breast
  TGI: > 28.2 µM
MCF7 breast
  TGI: > 29.2 µM
HCC-2998 colon
  GI50: 0.131 µM
  TGI: 0.539 µM
K-562 leukemia
  GI50: < 0.0289 µM
  TGI: > 100 µM
UACC-62 melanoma
  GI50: < 0.01 µM
EKVX NSCLC
  GI50: 0.612 µM
  TGI: > 63.8 µM
SK-MEL-28 melanoma
  TGI: > 100 µM
SW-620 colon
  TGI: > 100 µM
786-0 renal
  GI50: < 0.01 µM
  TGI: < 0.0241 µM
A498 renal
  GI50: 0.375 µM
  TGI: 20.6 µM
MALME-3M melanoma
  GI50: 0.159 µM
  TGI: > 100 µM
HCT-15 colon
  GI50: 0.103 µM
  TGI: > 100 µM
SK-MEL-2 melanoma
  GI50: 7.3 µM
  TGI: > 100 µM
PC-3 prostate
  GI50: 0.0532 µM
  TGI: > 100 µM
DU-145 prostate
  TGI: 1.71 µM
SNB-75 CNS
  GI50: 0.0726 µM
  TGI: > 100 µM
HS 578T breast
  GI50: 52.7 µM
  TGI: > 100 µM
MDA-MB-435
  GI50: 0.0232 µM
  TGI: 3.69 µM
OVCAR-5 ovarian
  GI50: 0.14 µM
  TGI: 43.8 µM
SK-MEL-5 melanoma
  GI50: 0.402 µM
  TGI: 1.24 µM
NCI-H23 lung
  GI50: < 0.0158 µM
  TGI: < 0.045 µM
BT-549 breast
  GI50: 0.202 µM
  TGI: 68.6 µM
SF-268 CNS
  TGI: > 32.2 µM
HOP-92 NSCLC
  GI50: 0.122 µM
  TGI: 33.4 µM
NCI/ADR-RES ovarian
  GI50: < 0.0289 µM
  TGI: 0.137 µM
UO-31 renal
  GI50: < 0.01 µM
  TGI: > 100 µM
IGROV1 ovarian
  GI50: 0.555 µM
  TGI: > 100 µM
HT29 colon
  TGI: > 35.1 µM
SK-OV-3 ovarian
  TGI: > 100 µM
NCI-H522 lung
  GI50: 0.0167 µM
RXF 393 renal
  GI50: 0.593 µM
  TGI: > 67.8 µM
NCI-H460 lung
  GI50: 3 µM
  TGI: > 100 µM
CCRF-CEM leukemia
  GI50: < 0.01 µM
  TGI: > 100 µM
SNB-19 CNS
  TGI: > 100 µM
ACHN renal
  GI50: < 0.01 µM
OVCAR-3 ovarian
  GI50: 0.0425 µM
  TGI: 0.306 µM
HCT-116 colon
  GI50: < 0.0158 µM
